In article PMC9666555, “Genuine selective caspase-2 inhibition with new irreversible small peptidomimetics” (Cell Death & Disease, 2022):
Non-standard residues stand in square brackets, D forms with d. Residues, ends and D or L forms follow the SMILES beside them. ξ: configuration not given here. *: point of attachment. ξTHIQ1CO(6-Me) = Cc1ccc2c(c1)CCNC2C(=O)O; X1 = O=C(O)CC(N*)C(=O)COc1c(F)cccc1F; Quinaldoyl = O=C(c1ccc2ccccc2n1)*

How the values were obtained:
[1] = test system: cell lines or primary neurons in culture; assay: Toxicity of inhibitor added to cultured cells; format: cell-based; settings: at least up to 100 µM; not shown
[2] = biological target: T1, human active recombinant Caspase-3 (Homo sapiens, UniProt P42574); assay: In vitro caspase activity and inhibition assay (IC50), Caspase-3; format: biochemical; settings: 30 min preincubation; 0.1 nM Caspase-3, 10 µM Ac-DEVD-AMC; read-out: Enzyme assays Casp3 IC50 (converted)
T1 sequence (P42574 29-175 limits assumed): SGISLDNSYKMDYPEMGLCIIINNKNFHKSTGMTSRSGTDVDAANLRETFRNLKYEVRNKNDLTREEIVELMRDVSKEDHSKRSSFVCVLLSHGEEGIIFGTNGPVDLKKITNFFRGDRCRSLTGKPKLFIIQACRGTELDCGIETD
T1 sequence (P42574 176-277 limits assumed): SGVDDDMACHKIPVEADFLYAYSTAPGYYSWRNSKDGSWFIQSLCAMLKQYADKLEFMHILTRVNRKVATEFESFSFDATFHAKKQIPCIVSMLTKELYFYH
Description: (§9) The human active recombinant Caspase-3 (#707-C3) was purchased from R&D Systems (Minneapolis, USA). […] Stock solutions were stored at −80 °C. […] Caspase inhibitors were solubilized in DMSO at 10 mM and stored at −80 °C.
(§10) Initial velocity (V0) was determined from the linear portion of the progress curve. The composition of the activity buffer was: 20 mM HEPES, pH 7.4; 0.1% CHAPS, 5 mM DTT, 2 mM EDTA; 800 mM sodium succinate for Caspase-2 (0.2 nM) with 25 µM of Ac-VDVAD-7-amino-3-methylcoumarin (AMC) and 20 mM HEPES, pH 7.4; 0.1% CHAPS, 5 mM DTT, 2 mM EDTA; supplemented with 1 mg/mL of stabilizing agent bovine serum albumin (BSA) for Caspase-3 (0.1 nM) with 10 μM of Ac-DEVD-AMC. Compounds (0.001–100 µM) were tested in duplicate for each inhibitor concentration to detect their inhibitory potential. Enzymes and compounds were incubated for 30 min before initiating enzymatic reaction by adding substrate. Initial rates determined in control experiments (V0) were considered as 100% of the caspase activity; initial rates that were below 100% in the presence of tested compound (Vi) were considered as inhibition. The inhibitory activity of compounds was expressed as IC50 (Inhibitor concentration giving 50% inhibition). The values of IC50 were calculated by fitting the experimental data using Mars data Analysis 2.0 and KaleidaGraph software.1 %Inhibition=1001−Vi/V0=100I0/IC50+I0

[3] = biological target: T2, human active recombinant caspase-2 (Homo sapiens, UniProt P42575); assay: In vitro caspase activity and inhibition assay (IC50), Caspase-2; format: biochemical
T2 sequence (P42575 170-325 limits assumed): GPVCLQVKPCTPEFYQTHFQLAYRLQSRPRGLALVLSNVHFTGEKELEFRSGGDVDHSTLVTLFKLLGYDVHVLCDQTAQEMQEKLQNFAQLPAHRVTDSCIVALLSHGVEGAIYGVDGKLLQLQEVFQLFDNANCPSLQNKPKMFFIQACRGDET
T2 sequence (P42575 348-452 limits assumed): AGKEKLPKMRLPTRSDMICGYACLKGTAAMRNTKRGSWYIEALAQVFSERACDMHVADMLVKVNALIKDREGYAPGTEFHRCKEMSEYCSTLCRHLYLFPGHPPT
Description: Stock solutions were stored at −80 °C.

[4] = test system: Molt4 lymphoid human cells; assay: Panobistat (LBH589)-induced cell death in Molt4 cells (propidium iodide, flow cytometry); format: cell-based; settings: Molt4, 1 h pretreatment (30 µM or indicated doses), 25 nM LBH589 24 h
Description: HeLa cells (obtained from ATCC) were cultured in Dulbecco’s Modified Eagle Medium (DMEM, High Glucose, GlutaMAX™, Pyruvate) supplemented with antibiotics and 10% fetal calf serum (FCS) (Gibco, Life Technologies) and maintained in T75 Flasks at 1 × 10^6 cells per flask. Twenty-four hours before treatments, HeLa cells were transferred to 6-well plates (8 × 10^4 cells/well). The lymphoblastoid cell line Molt4cl8 was a gift from Dr. Bernard Krust (Inserm, University Paris 5) and was cultured in RPMI 1640 Glutamax medium supplemented with Hepes, antibiotics, and 10% FCS. HEK293 cells were obtained from ATCC (CRL-1573) and cultured in DMEM with Glutamax and 25 mM glucose (Life Technologies) supplemented with 10% FCS and antibiotics. For cell death induction, the following agents were added to cell cultures: Vincristine (Sigma) and Panobistat (LBH589; Selleck). Cell death was analyzed using fluorescence microscopy (Axio-observer Z1, Zeiss; equipped with CCD camera CoolsnapHQ2, Ropert Scientific) and cytofluorometry (MACSQuant® VYB; Miltenyi Biotec, Bergisch Gladbach, Germany) after labeling with propidium iodide (1 µg/mL; 10 min; 37 °C; Life Technologies) and Hoechst 33342 (1 µg/mL; 5 min; RT; Sigma).
Fig. 5 LJ2 inhibits cell death induced by microtubule destabilization and hydroxamic acid-based deacetylase (HDAC) inhibition. a Effect of the irreversible Caspase-2 inhibitors LJ2 against vincristine-induced cell death. HeLa cells were pretreated for 1 h with the indicated doses of LJ2, Q-VD-OPh, or Q-LETD-OPh, then treated with vincristine (VCR) as in Fig. 2, then incubated with propidium iodide at 2 μg/mL for 10 min and analyzed by flow cytometry. […] Molt4 lymphoid human cells where were pretreated for 1 h with 30 µM of LJ2, Q-VD-OPh, or Belnacasan (VX-765), then treated for 24 h with 25 nM of LBH589, then incubated with propidium iodide as in (a) and analyzed by flow cytometry. […] Molt4 cells were treated as in (b) with the indicated doses of LJ2 or Q-VD-OPh and analyzed by flow cytometry. […]

[5] = biological target: T3, Plasmin (Homo sapiens, UniProt P00747); assay: Non-caspase enzyme assay, Plasmin; format: biochemical; settings: concentrations up to 10 µM
T3 construct: The human active Plasmin, Thrombin, and Trypsin; purchased Sigma-Aldrich
T3 sequence (P00747 581-810 limits assumed): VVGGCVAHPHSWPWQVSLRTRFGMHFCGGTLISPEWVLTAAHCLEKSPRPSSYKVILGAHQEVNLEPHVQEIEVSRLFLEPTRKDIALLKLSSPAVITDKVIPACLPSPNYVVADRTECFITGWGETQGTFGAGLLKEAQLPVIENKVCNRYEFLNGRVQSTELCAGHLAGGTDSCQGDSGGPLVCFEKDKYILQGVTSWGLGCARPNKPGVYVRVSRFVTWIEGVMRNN
T3 sequence (P00747 97-580 partner limits assumed): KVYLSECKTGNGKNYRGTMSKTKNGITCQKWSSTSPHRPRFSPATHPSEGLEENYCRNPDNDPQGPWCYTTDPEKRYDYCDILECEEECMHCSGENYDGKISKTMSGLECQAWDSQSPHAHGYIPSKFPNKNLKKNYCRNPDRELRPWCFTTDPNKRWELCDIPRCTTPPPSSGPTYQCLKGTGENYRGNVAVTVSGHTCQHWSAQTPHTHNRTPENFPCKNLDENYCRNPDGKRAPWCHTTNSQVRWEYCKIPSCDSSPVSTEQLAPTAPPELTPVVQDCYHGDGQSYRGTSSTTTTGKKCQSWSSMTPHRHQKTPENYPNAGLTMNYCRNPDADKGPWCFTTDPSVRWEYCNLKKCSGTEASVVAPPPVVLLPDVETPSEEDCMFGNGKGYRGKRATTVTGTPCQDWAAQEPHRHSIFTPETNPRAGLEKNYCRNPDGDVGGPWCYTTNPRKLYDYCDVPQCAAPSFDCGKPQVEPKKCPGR
Description: (§1) Stock solutions were stored at −80 °C. […]
(§2) Non-caspase enzyme assays
(§3) The human pro- kallikrein-1 (pro-hK1) was activated in a buffer containing: Tris-HCl 50 mM, CaCl2 10 mM, NaCl 150 mM, Brij-35 0,05% pH 7,5. Human pro-kallikrein-6 and -8 (pro-hK6 and 8 were activated using Lysyl-endopeptidase (Wako- BioProducts®) at a 1/500 weight ratio, in a buffer containing 50 mM Tris and 0,05% Brij-35 (pH 8). Kinetics using non-caspase enzymes for selectivity studies were done according to the following conditions.
(§4) Enzymes Substrates Buffers
(§5) Cathepsine B (0.2 nM) z-RR-AMC 20 µM Acétate de sodium 0,1 M; EDTA 1mM ; […]
(§6) Cathepsine L (1.2 nM) RLR-AMC 25 µM Acétate de sodium 0,1 M; EDTA 1mM ; […]
(§7) Cathepsine D (0.1 nM) Mca-Gly-Ly s-Pro-Ile-Leu-Phe-Phe- Citrate de Sodium 0,1 M; EDTA 2 mM ; Arg-Leu-Lys(Dnp)-D-Arg-NH2 10 µM Brij-35 0,01%; pH 4 hK1 (4 nM) Boc-VPR-AMC 100µM Tris 50mM; Citrate 1M; Brij-35 0.05%; pH7 hK6 (2 nM ) Boc-QAR -AMC 100 µM Tris 50mM; Citrate 1M; Brij-35 0.05%; pH7 hK8 (1 nM) Boc-VPR-AMC 100µM Tris 50mM; Citrate 1M; Brij-35 0.05%; pH7
(§8) Thrombine (10 mU/mL) Boc-VPR-AMC 100µM Tris 50mM; Citrate 1M; Brij-35 0.05%; pH7 Plasmine (4 nM ) Boc-QAR -AMC 100µM Tris 50mM; Citrate 1M; Brij-35 0.05%; pH7 Trypsine (0.1 nM) Boc-QAR -AMC 100µM Tris 50mM; Citrate 1M; Brij-35 0.05%; pH7

[6] = test system: Casp2-S1P-SREBP2 activation pathway in HEK 293 cells; assay: Casp2-dependent S1P cleavage and SREBP2 activation in transfected HEK 293 cells (WB); settings: 10 µM, 16 h
Description: To test SREBP processing, HEK 293 (ATCC® CRL-1573) cells were plated at a density of 0.5 × 10^5 per well (6-well plates). The next day, 1 μg of each cDNAs were transfected using lipofectamine 3000 (Thermo Fisher Scientific, MA) according to the manufacturer’s instruction. cDNAs used were empty vector (EV), Casp2-HA, PIDD-Flag, RAIDD-His, Myc-S1P, and V5-SREBP2. After 4 h, cells were incubated in DMEM/F12 medium supplemented with indicated Casp2 inhibitors (10 μM) for 16 h. Whole-cell lysates were prepared in lysate buffer (150 mM Tris-HCl, pH 7.4, 10% sodium-deoxycholate, 100 mM NaCl, 100 mM EDTA, 100 mM PMSF, 200 mM NaF, 100 mM Na3VO4, and a mixture of protease inhibitors). […] Equal quantities of proteins were subjected to immunoblot (WB) analysis with anti-Flag (#F7425 Sigma-Aldrich), anti-HA (#1867431, Roche), anti-Casp2 (#ALX-804-356, 11B4, Enzo Life Sciences), anti-V5 monoclonal antibody (#13202, Cell Signaling Technology), anti-Casp3 (#9661, #9662, #9664, Cell Signaling Technologies), and anti-HSP90 (#sc-101494, Santa Cruz Technologies).
HEK 293 cells were transfected with indicated plasmids in order to overexpress SREBP2, S1P, RAIDD, PIDD1, and Casp-2. […] HEK 293 cells were transfected with the indicated plasmids. […] Then, whole cell extracts (WCL) were prepared and subjected to WB analysis to detect Casp2 (through HA tag), RAIDD (through 6HIS tag), and PIDD1, PIDD1-C, PIDD1-CC (through Flag tag).

[7] = biological target: Cathepsin-L (Homo sapiens, UniProt P07711); assay: Non-caspase enzyme assay, Cathepsin-L; format: biochemical; settings: concentrations up to 10 µM
Cathepsin-L, sequence (P07711 114-333): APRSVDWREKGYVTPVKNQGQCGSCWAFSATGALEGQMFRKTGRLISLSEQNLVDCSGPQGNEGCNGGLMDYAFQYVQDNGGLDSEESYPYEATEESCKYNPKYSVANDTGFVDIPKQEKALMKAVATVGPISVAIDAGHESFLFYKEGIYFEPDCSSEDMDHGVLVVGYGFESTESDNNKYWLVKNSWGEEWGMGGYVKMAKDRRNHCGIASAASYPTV
Description: as §1, §2, §3, §4, §5, §6, §7, §8

[8] = biological target: human recombinant Caspase-6 (Homo sapiens, UniProt P55212); assay: Additional enzyme kinetics, Caspase-6; settings: concentrations up to 10 µM
human recombinant Caspase-6, sequence (P55212 24-179 limits assumed): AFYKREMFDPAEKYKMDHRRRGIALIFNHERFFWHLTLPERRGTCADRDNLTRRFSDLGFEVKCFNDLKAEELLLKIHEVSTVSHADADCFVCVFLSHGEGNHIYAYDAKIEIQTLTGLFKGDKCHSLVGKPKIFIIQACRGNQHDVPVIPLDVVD
human recombinant Caspase-6, sequence (P55212 194-293 limits assumed): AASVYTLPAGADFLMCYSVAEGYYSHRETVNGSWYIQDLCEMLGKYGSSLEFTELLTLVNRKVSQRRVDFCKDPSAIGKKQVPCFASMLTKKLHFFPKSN
Description: as §9, §10

SMILES | toxicity [1] | IC50 [2] [nM] | IC50 [3] [nM] | effect against Panobistat (LBH589)-induced cell death [4] | effect on Plasmin [5] | S1P cleavage [6] | SREBP2 activation [6] | impact on RAIDD, PIDD1, and Casp2 expression [6] | effect on Cathepsin-L [7] | effect on Caspase-6 [8]
Cc1ccc2c(c1)CCN(C(=O)[C@@H](NC(=O)[C@H](CC(=O)O)NC(=O)[C@@H](NC(=O)c1ccc3ccccc3n1)C(C)C)C(C)C)C2C(=O)NC(CC(=O)O)C(=O)COc1c(F)cccc1F (stereo partly drawn) [LJ2, Quinolin-2-carbonyl-VDV-(methyl-isoquinolyl)-D-CH2-O(2,6F2)Ph] (Quinaldoyl-VDV[ξTHIQ1CO(6-Me)]-X1) | devoid of any toxicity | 140 ± 5 | 0.37 ± 0.01 | dose-dependent inhibition of cell death |  |  |  |  |  | 
CC(C)[C@H](NC(=O)c1ccc2ccccc2n1)C(=O)N[C@@H](CC(=O)O)C(=O)N[C@H](C(=O)N1CC[C@H](CC(C)(C)C)[C@@H]1C(=O)NC(CC(=O)O)C(=O)COc1c(F)cccc1F)C(C)C (stereo partly shown) [LJ3a] |  |  |  |  | very limited or no effect | abolished | abolished | no significant impact | very limited or no effect | very limited or no effect
